According to patent US11690832B2, “Treatment of autoimmune diseases with combinations of RXR agonists and thyroid hormones” (Io Therapeutics, Inc., priority 2016, dated 2023):
“Also recorded” adds a separate entry of the source.

Legend:
[1] = tested on: Naive CD4+ CD25− FoxP3− cells; assay: Treg cell differentiation with RXR agonist in the presence of pan-RAR antagonist; format: cell-based, mouse; conditions: 1 nM or 10 nM 194310 with IRX4204 at 1.0 nM; Treg conditions
Protocol: Naive CD4^+ CD25^− FoxP3^− cells were purified from a Foxp3-GFP mouse using flow cytometry by sorting and isolating based upon a GFP^− phenotype. These cells were then cultured under Treg cell differentiation conditions by treating the cells with αCD3 and αCD28 polyclonal antibodies in the presence of IL-2 and TGF-β. […] The cultured cells were then assayed for the expression of Foxp3. […] However, this partial inhibition of Fox3p expression may actually be due to the blocking of the effects of endogenous RA in the culture medium.

[2] = molecular target: T1, RXRγ (Homo sapiens, UniProt P48443); assay: RXR homodimer transactivation assay (rCRBPII/RXRE-tk-Luc reporter) in CV-1 cells; format: cell-based
T1 construct: an expression construct including a full length RXRα, RXRβ, or RXRγ; expressed in transfected cells; host or cells: CV-1
T1 sequence (P48443 1-463): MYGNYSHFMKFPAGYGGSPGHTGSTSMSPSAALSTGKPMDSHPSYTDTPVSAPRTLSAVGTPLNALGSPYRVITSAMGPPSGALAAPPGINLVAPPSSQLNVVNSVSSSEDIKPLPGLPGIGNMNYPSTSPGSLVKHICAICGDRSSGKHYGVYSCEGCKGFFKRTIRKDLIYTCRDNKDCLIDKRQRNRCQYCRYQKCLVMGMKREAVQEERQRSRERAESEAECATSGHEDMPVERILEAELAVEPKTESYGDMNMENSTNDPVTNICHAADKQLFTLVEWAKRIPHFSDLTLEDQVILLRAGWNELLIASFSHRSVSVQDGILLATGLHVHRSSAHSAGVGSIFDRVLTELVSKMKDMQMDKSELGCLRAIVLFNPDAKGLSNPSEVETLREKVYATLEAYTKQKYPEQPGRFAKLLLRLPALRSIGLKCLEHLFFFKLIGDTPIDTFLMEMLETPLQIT
Protocol: To determine whether a RXR agonist can mediate its effects via RXRα receptor homodimers, RXRβ receptor homodimers, RXRγ receptor homodimers, or any combination thereof, or the corresponding RAR/RXR heterodimers, receptor-mediated transactivation assays were performed. For transactivation assays assessing RXR homodimer signaling, CV-1 cells were transfected with 1) an expression construct including a full length RXRα, RXRβ, or RXRγ; and 2) a rCRBPII/RXRE-tk-Luc reporter construct that included RXR homodimer-specific RXRE/DR1 responsive element linked to a luciferase gene. For transactivation assays assessing RAR/RXR heterodimer signaling, CV-1 cells were transfected with 1) an expression construct comprising a fusion protein including an estrogen receptor (ER) DNA binding domain linked to the ligand binding domain of RARα, RARβ, or RARγ and 2) a ERE-tk-Luc reporter construct that included an estrogen receptor responsive element linked to a luciferase gene. The ER-RAR fusion proteins provided an accurate readout of only the transfected ER-RAR. […] Data are mean values ±SE from five independent experiments.

[3] = molecular target: RARα (Homo sapiens, UniProt P10276); conditions: at ≥1 μM
Protocol: To determine whether a RXR agonist can mediate its effects via RXRα receptor homodimers, RXRβ receptor homodimers, RXRγ receptor homodimers, or any combination thereof, or the corresponding RAR/RXR heterodimers, receptor-mediated transactivation assays were performed. For transactivation assays assessing RXR homodimer signaling, CV-1 cells were transfected with 1) an expression construct including a full length RXRα, RXRβ, or RXRγ; and 2) a rCRBPII/RXRE-tk-Luc reporter construct that included RXR homodimer-specific RXRE/DR1 responsive element linked to a luciferase gene. For transactivation assays assessing RAR/RXR heterodimer signaling, CV-1 cells were transfected with 1) an expression construct comprising a fusion protein including an estrogen receptor (ER) DNA binding domain linked to the ligand binding domain of RARα, RARβ, or RARγ and 2) a ERE-tk-Luc reporter construct that included an estrogen receptor responsive element linked to a luciferase gene. […] Data are mean values ±SE from five independent experiments.

[4] = molecular target: T2, FXR/RXR (Homo sapiens, UniProt P19793); assay: Permissive heterodimer transactivation assay, 3x(IBABP/IRI)-tk-Luc in CV-1 cells; format: cell-based; conditions: 20 hr; relative to GW4064
T2 construct: expressed in transfected cells; host or cells: CV-1
Text: (§1) For PPARγ: CV-1 cells were transfected with 3×(rAOX/DR1)-tk-Luc reporter gene and an expression vector for PPARγ. For FXR:CV-1 cells were transfected with 3×(IBABP/IRI)-tk-Luc reporter gene and vectors for FXR and RXRα. For LXR:CV-1 cells were transfected with 3×(PLTP/LXRE)-tk-Luc reporter gene with vectors for LXRα or LXRβ. For Nurr1: COS7 cells were transfected with 3×NBRE-tk-luc reporter gene and full length Nurr-1 with or without full-length RXRα plasmid. […] Luciferase data were normalized to co-transfected β-gal activity. Luciferase activity was expressed as percent of maximal activity obtained using specific agonists. Rosiglitazone (PPARγ), GW4064 (FXR), T0901317 (LXR).

[5] = tested on: LXRα/RXR; assay: Permissive heterodimer transactivation assay, 3x(PLTP/LXRE)-tk-Luc in CV-1 cells; format: cell-based; conditions: 20 hr; relative to T0901317
Text: as §1

[6] = tested on: LXRβ/RXR; assay: as above; format: cell-based; conditions: 20 hr; relative to T0901317
Text: as §1

[7] = tested on: EAE in B6 mice; assay: EAE dose titration experiment with spleen and CNS flow cytometry; format: in vivo, mouse; conditions: 200 μg/day vs vehicle control
Protocol: A dose titration experiment was also conducted in EAE mice. EAE was induced in 28 B6 mice with MOG/CFA and PT as above. Mice were scored on day 7 as indicated above and divided into groups by score so means are as equal as possible.
At the completion of the experiment, the vehicle control and 200 μg/day groups were euthanized and spleen and CNS samples obtained.
Additionally, CD4+ CD25hi cells (generally consisting of TReg) were reduced, although the frequency was not altered (FIGS. 9A and 9B).
Restimulation with PMA/lonomycin was used to help detect the cytokine production.

[8] = tested on: EAE in C57BL/6 (B6) mice; assay: CNS infiltrating cells in EAE mice (FACS, day 20); format: in vivo, mouse; conditions: day 20 after immunization, vs vehicle control
Protocol: To determine whether a RXR agonist can reduce central nervous system (CNS) infiltrating cells, C57BL/6 (B6) mice were treated as described in Example 6. On day 20 after immunization, mice were sacrificed and perfused with phosphate buffered saline (PBS). Brain and spinal cord tissue was isolated, digested with DNase and Liberase DL (Roche Diagnostics, Indianapolis, Ind.) for 30 minutes, and homogenized through 70 micron nylon mesh filters. Resulting cells were placed over a Percoll gradient to remove myelin. The remaining cells (microglia and CNS infiltrating cells) were counted, stained for molecules of interest, and run on a flow cytometer. Based on the frequencies obtained by FACS of these cell populations, total cell numbers of CNS infiltrating leukocytes expressing CD45, including CD4^+ T cells and CD11c^+ CD11b^+ myeloid dendritic cells (DC), were calculated.

[9] = tested on: oligodendrocyte precursor cells (OPCs); assay: Oligodendrocyte precursor cell differentiation (PLP-EGFP, Cellomics); format: cell-based, mouse; conditions: compared to negative control (DMSO)
Text: OPCs were generated from a neurosphere culture of E14.5 PLP-EGFP (on C57BL/6J background) mouse brains. […] The EGFP expressing cells were quantified with Cellomics Neuronal Profiling Algorithm.
The EGFP expressing cells in controls and all compounds were quantified with Cellomics Neuronal Profiling Algorithm.

[10] = tested on: ethidium bromide demyelination of caudal cerebellar peduncles in one year old rats; assay: Focal toxin (ethidium bromide) induced rat model of demyelination; format: in vivo; conditions: IRX4204 10 mg/kg/day oral
Protocol: The experiment uses rats of relatively advanced age (1 year) since such rats undergo remyelination in a less efficient manner, thereby providing data that are more relevant to the clinical treatment of human patients with multiple sclerosis or other demyelination disorders.
Focal demyelination is induced in one year old rats (approximately 300 g in weight) by injecting stereotactically 5 μl of ethidium bromide solution (0.01% vol/vol in saline) in a bilateral manner into the caudal cerebellar peduncles (CCP). […] The rats are killed on day 24 post-ethidium bromide treatment for analysis of remyelination by quantitative polymerase chain reaction (qPCR) and microscopy.

[11] = tested on: cuprizone/rapamycin demyelination in C57BL/6J mice; assay: 12-week cuprizone/rapamycin demyelination model, 6 weeks of treatment (remyelination); format: in vivo, mouse; conditions: 10 mg/kg PO daily for 6 weeks after 12 weeks CR
Text: All animals were sacrificed after 12 weeks of CR or after further 6 weeks of treatment to evaluate myelin in white matter (corpus callosum) and gray matter (hippocampus and cortex). In addition, the size of myelinated axons was quantified and the large myelinated axons were further assessed by 3D-electron microscopy (3D-EM). A total of 40 animals were included in the study, where all 40 animals received CR demyelination for 12 weeks. After demyelination, a subset (n=10) of animals are sacrificed to serve as controls to assess baseline demyelination. […] Floating brain sections are immunostained with myelin prolipid protein (PLP) to visualize and quantify myelin in gray matter, hippocampus (FIG. 16A) and cortex (FIG. 16B).

[12] = tested on: Naive CD4+ CD25− FoxP3− cells; assay: T cell differentiation under Th17 cell differentiation conditions (Foxp3, IL-17A); format: cell-based, mouse; conditions: 0, 1, 10, 100 nM, with increasing concentration
Protocol: To determine whether a RXR agonist can regulate T cell differentiation, the ability of an RXR agonist to promote Treg cell differentiation and inhibit Th17 cell differentiation under Th17 cell differentiation conditions was assessed by monitoring Foxp3 and IL-17A expression. Naive CD4^+ CD25^− FoxP3^− cells were purified from a Foxp3-GFP mouse using flow cytometry by sorting and isolating based upon a GFP^− phenotype.

[13] = tested on: cuprizone plus rapamycin (CR) demyelination in C57BL/6J mice
Text: Animals (8 week-old male C57BL/6J mice) were subjected to cuprizone diet plus rapamycin injections (CR) for 6 weeks to induce demyelination. […] All animals were sacrificed after 6 weeks of CR to evaluate axonal integrity and microglial/macrophage activity in the white matter (corpus callosum, CC).
A total of 50 animals were included in the study, where 43 animals received CR demyelination for 6 weeks. During demyelination, a subset (n=7) of animals were kept on normal diet to serve as naïve age-matched controls.

T2 sequence (Q96RI1 whole entry partner): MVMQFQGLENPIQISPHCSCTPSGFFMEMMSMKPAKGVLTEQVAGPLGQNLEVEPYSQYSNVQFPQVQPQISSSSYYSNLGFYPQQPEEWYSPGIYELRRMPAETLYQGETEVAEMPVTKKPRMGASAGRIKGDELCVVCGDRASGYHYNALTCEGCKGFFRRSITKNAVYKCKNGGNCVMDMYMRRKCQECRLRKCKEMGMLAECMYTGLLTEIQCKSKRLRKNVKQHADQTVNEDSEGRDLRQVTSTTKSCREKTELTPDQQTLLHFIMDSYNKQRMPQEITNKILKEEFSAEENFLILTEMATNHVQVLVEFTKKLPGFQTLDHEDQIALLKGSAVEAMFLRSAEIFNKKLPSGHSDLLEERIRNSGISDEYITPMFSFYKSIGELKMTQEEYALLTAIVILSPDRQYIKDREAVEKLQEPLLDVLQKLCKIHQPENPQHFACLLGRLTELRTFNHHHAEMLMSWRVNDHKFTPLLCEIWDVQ
T2 sequence (P19793 whole entry): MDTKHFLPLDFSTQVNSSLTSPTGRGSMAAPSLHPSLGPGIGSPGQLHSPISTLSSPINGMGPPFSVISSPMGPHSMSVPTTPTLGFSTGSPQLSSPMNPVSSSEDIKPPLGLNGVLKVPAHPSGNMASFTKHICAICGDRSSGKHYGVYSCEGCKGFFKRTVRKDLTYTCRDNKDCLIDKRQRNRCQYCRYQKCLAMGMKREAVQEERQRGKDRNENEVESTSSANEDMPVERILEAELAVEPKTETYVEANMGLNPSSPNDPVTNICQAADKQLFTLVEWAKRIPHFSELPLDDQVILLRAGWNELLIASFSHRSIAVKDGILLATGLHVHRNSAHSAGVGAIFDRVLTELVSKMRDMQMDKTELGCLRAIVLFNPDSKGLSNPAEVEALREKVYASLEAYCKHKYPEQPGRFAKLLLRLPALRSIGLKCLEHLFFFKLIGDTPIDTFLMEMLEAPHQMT
Sequence of RARα (P10276 183-417 limits assumed, species assumed): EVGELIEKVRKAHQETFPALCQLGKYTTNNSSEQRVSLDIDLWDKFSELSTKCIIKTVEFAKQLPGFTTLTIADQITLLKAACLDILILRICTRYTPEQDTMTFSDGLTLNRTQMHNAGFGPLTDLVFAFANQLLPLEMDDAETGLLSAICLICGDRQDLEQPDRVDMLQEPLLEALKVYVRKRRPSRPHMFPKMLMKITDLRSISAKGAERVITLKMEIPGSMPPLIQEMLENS

Compound | effect on induction of Foxp3 expression by RXR agonist [1] | Efficacy (% of 1 μM IRX4204) RXRγ [2] | RARα activity detected [3] | activation of FXR/RXR heterodimer [4] | activation of LXRα/RXR heterodimer [5] | activation of LXRβ/RXR heterodimer [6] | CD4+ CD25hi cells frequency, spleen [7] | co-expression of IFNγ and IL-17A by CD4 T cells in CNS [7] | infiltration of CD4+ cells into CNS [8] | infiltration of CD11c+ CD11b+ cells (myeloid DC) into CNS [8] | OPC differentiation into oligodendrocytes (EGFP positive cells) [9] | densities of Olig2+ oligodendrocyte lineage cells and CC1+ differentiated oligodendrocytes in lesions ([10]; day 7 to 21, ± 20 ng/g s.c. thyroxine) | Mbp and Pdgfra expression (real-time qPCR of lesion samples) ([10]; ± 20 ng/g s.c. thyroxine) | size of myelinated axons in the corpus callosum [11] | Foxp3 expression (Treg cells) [12] | IL-17A expression (Th17 cells) [12] | health concerns during the treatment phase ([13]; 6 weeks) | number of SMI32 positive axonal ovoids in corpus callosum ([13]; compared to Vehicle, 6 weeks concurrent with CR) | Iba1 staining (microglial/macrophage activation) in corpus callosum ([13]; compared to vehicle)
CCc1ccc(C2=CC(C)(C)Sc3ccc(C#Cc4ccc(C(=O)O)cc4)cc32)cc1 [Compound 194310] | only partially blocked | – | – | – | – | – | – | – | – | – | – | – | – | – | – | – | – | – | –
CC(/C=C/[C@@H]1C[C@]1(C)c1ccc2c(c1)C(C)(C)CCC2(C)C)=C\C(=O)O [IRX4204, 3,7-dimethyl-6(S),7(S)-methano,7-[1,1,4,4-tetramethyl-1,2,3,4-tetrahydronaphth-7-yl]2(E),4(E) heptadienoic acid] | – | 0.09 ± 0.01 100 % of 1 μM IRX4204 | minimal activity | not to transactivate; also recorded: does not activate | not to transactivate; also recorded: does not activate | not to transactivate; also recorded: does not activate | not altered | not significantly different between groups | significant reduction | significant reduction | significant increase; also recorded: dose dependent increase | increased | increase | significant increase | increased | decreased | no observed health concerns | not statistically different from the Vehicle | no difference
